Data on one substance can be found in patent publication US10010581B2, “Syndecan peptides and polypeptides and uses thereof” (Wisconsin Alumni Research Foundation, priority 2012, dated 2018).

Common to all, as to type: cell-based, human
Experiment [1] concerns MCF10A mammary epithelial cells. The experiment in a line: scratch wound haptotaxis induced by clustering the α6β4 integrin. Conditions: α6β4 integrin clustered. As to the method:
FIG. 9. Sdc1 ectodomain fragments and β4 dominant-negative mutant specific for Sdc1/α6β4/HER2 block MCF10A mammary epithelial cell migration. Haptotaxis of MCF10A human mammary epithelial cells induced by clustering the α6β4 integrin in a scratch wound assay is used to test the efficacy of inhibitors that target the Sdc1 mechanism. Cells are incubated either with entire recombinant syndecan ectodomains (Sdc1 ectodomain (S1ED) or Sdc4 ectodomain (S4ED) as a control), or an active fragment of mouse S1ED (S1ED^200-252) containing the inhibitory site.
HaCat or MCF10A cells were grown to confluence on 48 well-plates were starved for 6 hr by serum deprivation followed by introduction of a scratch wound in the monolayer using 200 μl pipette tip. Cells were cultured an additional 18 hr in DMEM containing mAb 3E1 (10 μg/ml) and goat anti-mouse IgG (50 μg/ml), EGF (10 ng/ml) or HGF (20 ng/ml) to cause cell migration in the presence or absence of inhibitors. Images were acquired using a PlanApo 20 (0.75 numerical aperture) objective and a Photometrics CoolSnap ES camera on a Nikon Eclipse TE2000U microscopy system and wound closure quantified.
The inventor used this assay to further truncate the S1ED recombinant proteins in order to find the smallest peptide that retains full inhibitory activity (e.g., SSTNHER2). The inventor tested mouse and human S1ED and find that they compete equally. […]

The test system of another experiment is UM-SCC47 cells. The experiment in a line: total cell number, CellTiterGLO assay. Conditions: 4 or 7 days. The protocol: (§1) FIGS. 11A-F. SSTN treatment of normal (nontransformed) epithelial cells versus carcinoma (transformed) cells. Cells are plated for one day, then treated with either 3-30 μM […] (SSTN-I), 3-30 μM […] (SSTN-E), 3-30 μM SSTNHER2 (SSTN-H) or combinations of the three peptides, each at 10 μM to test their additive effect. […] The treatment times are chosen to reflect only modest effects of the peptides used singly, so that the more pronounced effect of peptides used in combination can still be observed. Treatment for longer times leads to significant cell death observed even with single peptides alone. (FIG. 11A) HaCat human keratinocytes, an example of a normal stratified epithelium, (FIG. 11B) UM-SCC47 cells, a squamous cell carcinoma derived from the tongue of a patient (a stratrified epithelium), (FIG. 11C) SCC25 cells, another squamous cell carcinoma from the tongue of a patient (FIG. 11D) MCF10A cells, a normal human breast epithelium, (FIG. 11E) MDA-MB-468 cells, a triple-negative (TN) breast carcinoma, and (FIG. 11F) SKBr3 cells, a HER2+ human breast carcinoma. Note that the “triple-negative” designation of the MDA-MB-468 carcinoma means the cells are negative for progesterone receptor, estrogen receptor and the HER2 kinase. Thus, they would not be expected to rely on HER2. Indeed, these cells are not affected by SSTNHER2, either alone or when combined with the other peptides. […] Nonetheless, the other three carcinomas are inhibited by SSTNHER2, and this is enhanced when SSTNHER2 is combined with the other SSTN peptides, leading to obvious cell death (e.g., the number of cells at the end of the experiment are less than at the beginning).
(§2) Cells (5×10^4/well in a 24-well plate) were treated with activated TAT-peptide ([…]; (SEQ ID NO:18)), inactivated TAT-peptide ([…]; (SEQ ID NO:19)) or GST fusion protein (GST, GST-S1ED or GST-S4ED). Cells death was observed by trypan blue staining or Cell Tilter-GLO Cell Viability Assay (Promega).

For another experiment, the system named is SKBr3 cells. The experiment in a line: total cell number, CellTiterGLO assay. Conditions: 4 or 7 days. As to the method:
as §1, §2
(Cellular ATP, detected with luciferase, serves as a proxy for viable cell number.)

The test system of the next experiment is MDA-MB-468 cells. Briefly: total cell number, CellTiterGLO assay. The note with it: 4 or 7 days. The protocol: as §1, §2
Another experiment has as its system MCF10A cells. Briefly: total cell number, CellTiterGLO assay. The note with it: single peptide, concentrations as high as 30 μM, 4 or 7 days. As to the method: as §1, §2
In a further experiment the test system is SCC25 cells. The experiment in a line: total cell number, CellTiterGLO assay. The note with it: 4 or 7 days. As to the method:
as §1, §2

For “SSTNHER2: synthetic peptide of human Sdc1 ectodomain amino acids 210-240 (SEQ ID NO:3), inhibits Sdc1 coupling of HER2 to α6β4 integrin (DFTFETSGENTAVVAVEPDRRNQSPVDQGAT; listed as Homo sapiens)”, the “haptotaxis (migration to close a scratch wound)” value in experiment [1] is reported as “blocks haptotaxis”. Further, the “total cell number, combination with the other SSTN peptides” value in the experiment on UM-SCC47 cells (each peptide at 10 μM) is “enhanced”; in the experiment on SKBr3 cells (each peptide at 10 μM), “enhanced”; with MDA-MB-468 cells (MDA-MB-468, each peptide at 10 μM), “not affected”; in the experiment on SCC25 cells (each peptide at 10 μM), “enhanced”. Moreover, the proliferation and survival entry is “target the proliferation and survival” in the experiment with UM-SCC47 cells (single peptide 3-30 μM); “target the proliferation and survival” with SKBr3 cells (single peptide 3-30 μM); “no effect” with MDA-MB-468 cells (MDA-MB-468 (triple-negative), single peptide 3-30 μM); “target the proliferation and survival” in the experiment on SCC25 cells (single peptide 3-30 μM). In the experiment with MCF10A cells, the growth or survival entry is recorded as “no effect”.
